Data on six compounds can be found in patent EP2385818B1, “DIOLS AS ANTIPERSPIRANT AGENTS” (Beiersdorf Aktiengesellschaft, priority 2009, dated 2010).

The test deals with schweißabgebenden Schweißdrüsen im Testareal. Briefly: Sweat reduction on the forearm of volunteers, sweating induced at 75 °C, silicone imprint count of active sweat glands versus untreated area (following Keskin et al.). The test is classed as in vivo, Probanden. As to conditions: for antitranspirant bzw. schweißhemmende Wirkung (Restschweißmenge im Vergleich zum unbehandelten Areal): forearm, after product application, result in words only; for AT-Wirkung, onset: measurable after the first application, no build-up by repeated application. An excerpt:
Die überraschende Antitranspirantwirksamkeit wurde in Studien zum AT-Wirkmechanismus der aromatischen Diole in wässrigen Systemen, unterschiedlichen Ölen und O/W-Emulsion untersucht (siehe Abbildung 1). In den Abbildungen ist die Restschweißmenge im Vergleich zum unbehandelten Areal nach Produktapplikation dargestellt. 100% Restschweißmenge entsprechen 0% Schweißreduktion. Die Schweißreduktion wurde in Anlehnung an M. Keskin et al. J. Invest. Dermatol. 1998; 110:591 gemessen. Bei den Messungen werden die Testsubstanzen auf dem Unterarm der Probanden angewendet. Die Probanden werden bei 75 °C zum Schwitzen angeregt; nach Beginn der Schweißproduktion wird mittels Silikonabdrucktechnik die Anzahl der schweißabgebenden Schweißdrüsen im Testareal ermittelt und gegen ein unbehandeltes Vergleichsareal abgeglichen.

As for `CC(O)CCC(C)O` (centres unmarked) [2,5 Hexandiol, 2,5-Hexandiol], the “antitranspirant bzw. schweißhemmende Wirkung (Restschweißmenge im Vergleich zum unbehandelten Areal)” value is given as “antitranspirant bzw. schweißhemmende Wirkung” and the “AT-Wirkung, onset” value is recorded as “unmittelbare AT-Wirkung (Sofort-Effekt)”.
`OCCC(O)c1ccccc1` (centres unmarked) [Phenyl-1,3-Propylenglykol]: the “antitranspirant bzw. schweißhemmende Wirkung (Restschweißmenge im Vergleich zum unbehandelten Areal)” value is recorded as “schweißhemmende Wirkung”.
Turning to `CC(O)CCO` (centres unmarked) [1,3-Butylenglykol], the “antitranspirant bzw. schweißhemmende Wirkung (Restschweißmenge im Vergleich zum unbehandelten Areal)” value is reported as “antitranspirant bzw. schweißhemmende Wirkung” and the “AT-Wirkung, onset” value is “unmittelbare AT-Wirkung (Sofort-Effekt)”.
In the case of `OCCCO` [1,3-Propylenglykol], the “antitranspirant bzw. schweißhemmende Wirkung (Restschweißmenge im Vergleich zum unbehandelten Areal)” value is listed as “antitranspirant bzw. schweißhemmende Wirkung” and the “AT-Wirkung, onset” value is “unmittelbare AT-Wirkung (Sofort-Effekt)”. Under “preparation with up to 50 % Gew. in water, compared with preparation with 10 Gew.% Aluminiumchlorohydrat (Abbildung 1)”, the AT-Leistung result is “gute AT-Leistung”.
Regarding `CC(O)CC(C)O` (centres unmarked) [2,4-Pentylenglykol], the “antitranspirant bzw. schweißhemmende Wirkung (Restschweißmenge im Vergleich zum unbehandelten Areal)” value was “antitranspirant bzw. schweißhemmende Wirkung” and the “AT-Wirkung, onset” value is reported as “unmittelbare AT-Wirkung (Sofort-Effekt)”.
`CC(O)C(O)c1ccccc1` (centres unmarked): the “antitranspirant bzw. schweißhemmende Wirkung (Restschweißmenge im Vergleich zum unbehandelten Areal)” value is “schweißhemmende Wirkung”.
